Test results taken from patent publication US20230053540A1, “TREATMENT OF LIVER INJURY” (Massachusetts Institute of Technology, priority 2019, published 2023).

How the values were obtained:
[1] = test system: mouse liver; test: APAP acute liver injury in mice, histology/IHC (TUNEL, PCNA); format: in vivo; conditions: 300 mg/kg APAP i.p.
Experimental: Mice were then used for isolation of primary hepatic cells for single cell RNA-sequencing or tissue harvest for further downstream analysis.
A portion of liver tissue was fixed in 10% neutral buffered formalin for 48 hrs and further processed to obtain paraffin blocks and 5 μm thick sections. A portion of liver tissue was frozen in optimal cutting temperature (OCT) medium and used to obtain 10 μm fresh frozen sections.
Histology was performed by the histology core at Beth Israel Deaconess Medical Center using standard procedures and automated workflow. Samples were processed and embedded following fixation in 10% neutral buffered formalin for 48 hrs. Samples were embedded in paraffin and sectioned at […]. Immunohistochemistry was performed on a Leica autostainer (Leica Biosystems) with enzyme treatment (1:1000) using standard protocols. The antibody used for assessment of cell proliferation was PCNA (Cell Signaling, Cat. 13110, 1:800), and cell death was ApopTag Peroxidase In Situ Apoptosis Detection Kit (Millipore, Cat. #S7100). Macrophages were stained using the anti-F4/80 (Cell Signaling, Cat. 70076, 1:500). Sections were then counterstained with hematoxylin, dehydrated, and film cover slipped. Four representative images were captured per slide. TUNEL-positive area, PCNA-positive cells, and F4/80-positive cells were measured and averaged across the four images for each sample using Fiji.

[2] = test system: hepatocytes; test: Gene set analysis (piano) of composite DEG, APAP vs untreated; design: species or system mouse
Description: Shared and unique by injury model gene lists were assembled by combining DE results across all time points for each injury. Applicants ran differential expression using Wilcox test in the FindAllMarkers Seurat function between each treatment condition (A6, A24, A48, A96, PH3, PH48, PH120) individually and untreated (UT). […] A small number of genes were up at one time point, but down at another.
Applicants ran pathway analysis on the composite DE results using the piano R package. Reference gene sets were downloaded from MSigDB (Broad Institute). Applicants used geneSetStat=“fisher”, adjMethod=“fdr”, and signifMethod=“geneSampling”. Applicants then parsed the results to identify shared and unique reference gene sets for each injury. Any reference gene set with a q-value greater than 0.05 was discarded as insignificant. […] Selected reference gene set −log(q) are plotted in FIG. 20.

## CC(=O)Nc1ccc(O)cc1 [APAP, acetaminophen]
[1]; 6 hrs post-APAP (A6)
  histological analysis of liver: pericentral necrosis
[1]; 24 hrs post-APAP (A24)
  histology of liver: persistent pericentral necrosis
[1]; PH ~70%
  total cell loss (liver cell mass) after APAP exposure: ~10%
[2]
  anti-oxidant response by gene set analysis (GSA): substantial anti-oxidant response
